Experimental data as given in PMC6199744, “Development of Chemical Proteomics for the Folateome and Analysis of the Kinetoplastid Folateome” (ACS Infectious Diseases, 2018).
Like-named read-outs stand apart in the source and are kept apart here.

Key:
[1] = target: T1, HeLa cell extract proteins (Homo sapiens, UniProt O75534); type: binding
T1 construct: endogenous in cells; host or cells: HeLa cell extract
T1 sequence (O75534 1-798): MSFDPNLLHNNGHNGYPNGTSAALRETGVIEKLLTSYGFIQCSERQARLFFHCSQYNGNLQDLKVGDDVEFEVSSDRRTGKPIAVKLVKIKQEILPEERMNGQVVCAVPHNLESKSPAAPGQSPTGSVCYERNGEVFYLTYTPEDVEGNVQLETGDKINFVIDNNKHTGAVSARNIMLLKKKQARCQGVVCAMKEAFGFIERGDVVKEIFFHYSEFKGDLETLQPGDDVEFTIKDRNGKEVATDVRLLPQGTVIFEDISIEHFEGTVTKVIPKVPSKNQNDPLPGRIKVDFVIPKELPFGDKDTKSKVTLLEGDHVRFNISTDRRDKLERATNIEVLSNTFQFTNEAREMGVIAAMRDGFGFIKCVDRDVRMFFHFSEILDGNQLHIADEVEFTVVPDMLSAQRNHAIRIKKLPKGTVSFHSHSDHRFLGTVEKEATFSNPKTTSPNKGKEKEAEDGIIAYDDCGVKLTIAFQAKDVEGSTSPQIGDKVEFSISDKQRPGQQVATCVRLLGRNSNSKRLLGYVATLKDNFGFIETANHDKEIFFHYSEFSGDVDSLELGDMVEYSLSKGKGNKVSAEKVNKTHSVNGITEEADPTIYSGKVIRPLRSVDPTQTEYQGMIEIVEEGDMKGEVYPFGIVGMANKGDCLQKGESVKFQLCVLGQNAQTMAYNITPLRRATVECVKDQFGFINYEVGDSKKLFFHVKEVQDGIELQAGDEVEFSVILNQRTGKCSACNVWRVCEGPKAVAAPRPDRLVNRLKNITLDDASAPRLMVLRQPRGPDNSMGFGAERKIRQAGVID

[2] = target: T2, HeLa cell extract proteins (Homo sapiens, UniProt O76071); type: binding
T2 construct: endogenous in cells; host or cells: HeLa cell extract

[3] = target: T3, HeLa cell extract proteins (Homo sapiens, UniProt P45954); type: binding
T3 construct: endogenous in cells; host or cells: HeLa cell extract

[4] = target: T4, HeLa cell extract proteins (Homo sapiens, UniProt Q96S59); type: binding
T4 construct: endogenous in cells; host or cells: HeLa cell extract

TbDHFR = conditions: direct enzyme assays; cited from earlier work
TbTS = conditions: direct enzyme assays; read-out: TbTS Ki; cited from earlier work
DHFR-TS [5] = target: DHFR-TS (Leishmania major, UniProt P07382); assay: biochemical; conditions: competing free ligand 100 μM; bead = immobilized compound of the row; L. major lysate; read-out: % Inhibition of protein binding to bead, DHFR-TS, L. major
TB11.03.0290 = assay: Multitargeted bead mixture competition; type: binding, T. brucei; conditions: for fold change - vehicle control: protein TB11.03.0290 PROTEIN KINASE, PUTATIVE
[6] = target: T5, HeLa cell extract proteins (Homo sapiens, UniProt Q09666); type: binding; conditions: HeLa; protein AHNAK
T5 construct: endogenous in cells; host or cells: HeLa cell extract

[7] = test system: MTHF complex (DHCH protein in humans); assay: Multitargeted bead mixture competition, HeLa cell extract; type: binding, human; conditions: bead mixture; HeLa cell extract
DHFR-TS [8] = target: DHFR-TS (Trypanosoma brucei brucei, UniProt Q27783); assay: Individual bead pull down with competing free ligand; conditions: competing free ligand 100 μM; bead = immobilized compound of the row; T. brucei lysate; read-out: % Inhibition of protein binding to bead, DHFR-TS, T. brucei
Excerpt: (§1) Antifolate compounds were immobilized onto NHS-activated sepharose beads/reverse sepharose beads through amide coupling via either an amino or carboxyl group (see Figure 3). The reaction was monitored by observing the disappearance of test compound by LCMS, after which the unreacted coupling sites were capped with NHS-acetate or aminoethanol.
(§2) Folate metabolizing enzymes are not highly abundant proteins,[19],[20] potentially making their identification by MS difficult. Beads will not only pull down the low abundant high affinity binders but also attract highly abundant, low affinity binders or so-called nonspecific binders. Sometimes, the nonspecific high abundant proteins can mask true binders. The target identification approach used in this study overcomes this issue by performing competition studies. Various concentrations of the free unmodified inhibitor (test compound) were preincubated with the lysate, prior to addition of the beads derivatized with immobilized compounds. Following washing of the bound proteins from the beads and tryptic digest, the peptides were labeled using the TMTs and then pooled. Differences in peptide abundance were analyzed by fragmentation of the isotope-coded isobaric tags in the MS/MS spectra (Figure 5).[9],[11],[12],[21] While the competition experiments with test compound confirm specific binding, it is also possible that some proteins will have a stronger binding interaction with the derivatized beads than the competing test compound, due to subtle differences in the interactions between the immobilized compound and the test compound with the target protein.

PTR-1 = PTR-1 (Trypanosoma brucei brucei, UniProt O76290); assay: as above; conditions: competing free ligand 100 μM; bead = immobilized compound of the row; T. brucei lysate; read-out: % Inhibition of protein binding to bead, PTR-1, T. brucei
Excerpt: as §1, §2

TB427.04.1870 = assay: Multitargeted bead mixture competition; type: binding; conditions: free ligand 100 μM, T. brucei lysate
[9] = test system: PHOSPHATIDYLINOSITOL-4-PHOSPHATE 5-KINASE, PUTATIV (TB427.10.3890); assay: Multitargeted bead mixture competition; type: binding; conditions: free ligand 100 μM, T. brucei lysate
TB09.211.1690 = assay: Multitargeted bead mixture competition; type: binding; conditions: free ligand 100 μM, T. brucei lysate
TB927.7.1340 = assay: Multitargeted bead mixture competition; type: binding; conditions: free ligand 100 μM, T. brucei lysate
[10] = test system: HYPOTHETICAL PROTEIN, CONSERVED (TB427.03.2670); assay: Multitargeted bead mixture competition; type: binding; conditions: free ligand 100 μM, T. brucei lysate
[11] = test system: PEPTIDYL-PROLYL CIS-TRANS ISOMERASE (CYCLOPHILIN- (TB427TMP.211.1350)); assay: Multitargeted bead mixture competition; type: binding; conditions: free ligand 100 μM, T. brucei lysate
[12] = test system: ACETYLTRANSFERASE, PUTATIVE (Tb427.08.3310); assay: Multitargeted bead mixture competition; type: binding; conditions: free ligand 100 μM, T. brucei lysate
[13] = test system: HYPOTHETICAL PROTEIN, CONSERVED (Tb427.10.6100); assay: Multitargeted bead mixture competition; type: binding; conditions: free ligand 100 μM, T. brucei lysate
[14] = test system: PROTEIN KINASE, PUTATIVE (Tb427.03.1570); assay: Multitargeted bead mixture competition; type: binding; conditions: free ligand 100 μM, T. brucei lysate

T2 sequence (O76071 whole entry): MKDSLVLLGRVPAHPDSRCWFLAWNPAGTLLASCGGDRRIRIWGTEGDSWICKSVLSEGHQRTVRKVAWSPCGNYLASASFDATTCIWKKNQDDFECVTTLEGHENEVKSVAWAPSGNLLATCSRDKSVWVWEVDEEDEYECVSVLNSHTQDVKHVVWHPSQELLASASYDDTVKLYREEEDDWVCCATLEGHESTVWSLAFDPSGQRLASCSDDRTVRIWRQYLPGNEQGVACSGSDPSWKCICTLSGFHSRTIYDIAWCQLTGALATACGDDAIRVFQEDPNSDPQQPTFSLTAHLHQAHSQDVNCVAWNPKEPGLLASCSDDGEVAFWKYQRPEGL
Sequence of DHFR-TS (Leishmania major, UniProt P07382) (P07382 whole entry): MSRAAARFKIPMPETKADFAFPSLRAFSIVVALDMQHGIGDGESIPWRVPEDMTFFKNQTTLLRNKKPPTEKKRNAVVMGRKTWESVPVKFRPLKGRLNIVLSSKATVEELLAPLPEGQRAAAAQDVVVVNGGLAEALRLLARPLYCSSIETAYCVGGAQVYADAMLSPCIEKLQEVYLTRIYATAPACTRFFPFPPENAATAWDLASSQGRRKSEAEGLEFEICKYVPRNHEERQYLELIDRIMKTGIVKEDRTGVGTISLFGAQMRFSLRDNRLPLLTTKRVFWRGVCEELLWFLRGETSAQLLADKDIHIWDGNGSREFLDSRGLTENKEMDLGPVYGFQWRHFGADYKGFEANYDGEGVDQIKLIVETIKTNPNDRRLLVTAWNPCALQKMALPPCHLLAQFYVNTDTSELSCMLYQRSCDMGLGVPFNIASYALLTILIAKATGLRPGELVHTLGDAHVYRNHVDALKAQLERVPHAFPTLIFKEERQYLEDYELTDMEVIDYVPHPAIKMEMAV
T4 sequence (Q96S59 whole entry): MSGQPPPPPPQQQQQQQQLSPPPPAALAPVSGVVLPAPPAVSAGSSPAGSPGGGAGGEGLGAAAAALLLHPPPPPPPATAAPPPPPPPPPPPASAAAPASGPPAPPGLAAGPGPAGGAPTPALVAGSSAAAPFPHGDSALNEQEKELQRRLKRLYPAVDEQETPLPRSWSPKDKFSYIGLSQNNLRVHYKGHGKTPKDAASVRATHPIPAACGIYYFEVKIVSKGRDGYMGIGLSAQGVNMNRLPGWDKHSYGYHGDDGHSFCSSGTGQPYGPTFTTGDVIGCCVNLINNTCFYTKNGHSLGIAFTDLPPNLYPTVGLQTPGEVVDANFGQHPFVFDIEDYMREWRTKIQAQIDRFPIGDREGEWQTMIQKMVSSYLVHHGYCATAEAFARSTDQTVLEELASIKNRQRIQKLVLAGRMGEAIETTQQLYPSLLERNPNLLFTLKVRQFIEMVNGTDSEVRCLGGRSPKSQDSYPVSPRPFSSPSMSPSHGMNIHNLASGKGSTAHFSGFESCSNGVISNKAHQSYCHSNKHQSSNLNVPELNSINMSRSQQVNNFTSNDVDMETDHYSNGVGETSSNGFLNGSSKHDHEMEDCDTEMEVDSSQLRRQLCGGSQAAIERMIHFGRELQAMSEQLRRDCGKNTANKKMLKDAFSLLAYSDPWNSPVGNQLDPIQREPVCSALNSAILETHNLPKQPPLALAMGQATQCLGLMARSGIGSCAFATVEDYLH
Sequence of PTR-1 (O76290 entry or part of it): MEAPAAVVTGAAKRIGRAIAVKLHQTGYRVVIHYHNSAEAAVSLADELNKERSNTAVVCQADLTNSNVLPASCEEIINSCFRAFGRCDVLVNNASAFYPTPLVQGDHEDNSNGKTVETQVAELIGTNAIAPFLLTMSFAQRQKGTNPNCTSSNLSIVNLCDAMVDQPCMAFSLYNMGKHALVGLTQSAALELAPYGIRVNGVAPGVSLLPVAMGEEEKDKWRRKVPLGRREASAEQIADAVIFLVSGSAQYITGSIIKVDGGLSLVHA
Sequence of DHFR-TS (Trypanosoma brucei brucei, UniProt Q27783) (Q27783 whole entry): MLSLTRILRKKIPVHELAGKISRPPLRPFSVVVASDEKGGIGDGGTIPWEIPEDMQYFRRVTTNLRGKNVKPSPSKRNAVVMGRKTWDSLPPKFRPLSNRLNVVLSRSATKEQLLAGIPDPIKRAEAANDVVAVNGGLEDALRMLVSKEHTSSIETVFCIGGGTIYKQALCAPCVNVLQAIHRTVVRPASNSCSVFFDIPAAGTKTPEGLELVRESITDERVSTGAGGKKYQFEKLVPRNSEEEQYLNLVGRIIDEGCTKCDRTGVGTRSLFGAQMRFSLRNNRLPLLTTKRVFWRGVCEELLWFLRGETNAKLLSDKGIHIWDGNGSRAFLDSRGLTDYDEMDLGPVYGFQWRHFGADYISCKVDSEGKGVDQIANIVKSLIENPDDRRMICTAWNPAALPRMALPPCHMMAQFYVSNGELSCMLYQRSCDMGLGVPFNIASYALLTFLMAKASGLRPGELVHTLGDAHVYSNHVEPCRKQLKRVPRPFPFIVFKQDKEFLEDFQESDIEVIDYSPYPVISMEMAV

Compound | fold changes relative to vehicle control ([1]; HeLa, protein CSDE1) | fold changes relative to vehicle control ([2]; HeLa, protein CIAO1) | fold changes relative to vehicle control ([3]; HeLa, protein ACADSB) | fold changes relative to vehicle control ([4]; protein RANBP9, HeLa) | inhibition at 100 µM (DHFR-TS [5]) [%] | fold change - vehicle control (TB11.03.0290) | fold changes relative to vehicle control [6] | further results
Nc1nc2c(c(=O)[nH]1)N(C=O)C(CNc1ccc(C(=O)N[C@@H](CCC(=O)O)C(=O)O)cc1)CN2 (stereo partly shown) [LEU, leucovorin] | 0.96 | 0.94 | 0.9 | 1.03 | – | – | – | –
Nc1nc2[nH]cc(CCc3ccc(C(=O)N[C@@H](CCC(=O)O)C(=O)O)cc3)c2c(=O)[nH]1 [PTX, pemetrexed] | – | – | – | – | – | – | – | fold changes relative to vehicle control [1]: 1.14; fold changes relative to vehicle control [2]: 0.86; fold changes relative to vehicle control [3]: 0.93; fold changes relative to vehicle control [4]: 1.05; Ki (TbDHFR): 0.29 ± 0.02 µM; Ki (TbTS): 20.5 µM
CCCCCCOc1ccc(Cc2cnc(N)nc2N)cc1 [compound 1] | – | – | – | – | < 50 | 0.91 | 0.88 | inhibition, all subunits of the MTHF complex [7]: > 70%
CCCCCCOc1cccc(Cc2cnc(N)nc2N)c1 [compound 2] | – | – | – | – | < 50 | 0.99 | 1.1 | –
Nc1nc2cccc(-c3ccccc3)c2n1Cc1ccc(Cl)c(Cl)c1 [compound 3] | – | – | – | – | < 50 | 1.06 | 0.86 | inhibition at 100 µM (DHFR-TS [8]): < 50%; inhibition at 100 µM (PTR-1): < 50%; percentage of competition from bead binding (TB427.04.1870): 47%; percentage of competition from bead binding (TB11.03.0290; multitargeted bead mixture, free ligand 100 μM, T. brucei lysate, TB11.03.0290): 10%; percentage of competition from bead binding [9]: -23%; percentage of competition from bead binding (TB09.211.1690): 39%; percentage of competition from bead binding (TB927.7.1340): 40%; percentage of competition from bead binding [10]: 62%; percentage of competition from bead binding [11]: 38%; percentage of competition from bead binding [12]: 37%; percentage of competition from bead binding [13]: 67%; percentage of competition from bead binding [14]: -2%
NCCOCCOCC(=O)Nc1nc2ncc(CNc3ccc(C(=O)NC(CCC(=O)O)C(=O)O)cc3)nc2c(=O)[nH]1 (stereo not shown) [compound 6] | 1.22 | 0.93 | 0.96 | 0.96 | – | – | – | –
NCCCNc1ccc(C(=O)NC(CCC(=O)O)C(=O)O)cc1 (stereo not shown) [compound 7] | 1.05 | 0.91 | 1.02 | 1.65 | – | – | – | –
